Like-named read-outs stand apart in the source and are kept apart here. Marks after values point to notes of the source that are not given here.
Tests used:
[1] = Hygroscopy, dynamic vapour sorption (DVS) isotherms (Example 15); format: physicochemical
Experimental: Water sorption isotherms were determined using a DVS Resolution gravimetric sorption analyzer (London, UK), or a DVS Intrinsic instrument (Surface measurement Systems). The sample was dried for 1000 minutes at 0% relative humidity (R.H.). Afterwards the dry weight was recorded. […] The equilibrium criterion for each relative humidity set point was 0.002% per minute relative mass change as a function of time.

[2] = Solubility of cholinate vs free acid and other salts, shake-flask method (Example 14); format: physicochemical
Experimental: (§1) Preparation of FaSSIF (Fasted State Simulated Intestinal Fluid) blank solution: 4.2 g NaOH, 44.7 g NaH2PO4*2 H2O, and 61.86 g NaCl were dissolved in approximately 9.5 L demineralized water. Then, the pH of this solution was adjusted to 6.50+/−0.05 using HCl or NaOH, respectively. In the last step, the final volume was adjusted to 10.0 L by the addition of demineralized water.
Preparation of the final FaSSIF solution: 4.48 g SIF (Simulated Intestinal Fluids) powder (provider: biorelevant.com, Product code: FFF01 (May 2022)) were dissolved in approximately 500 mL FaSSIF blank solution, then the final volume was adjusted to 2.0 L by the addition of FaSSIF blank solution. After 2 hours, the solution was considered to be ready to use and was used within 48 hours.
as §1, with “FeSSIF (Fed” for “FaSSIF (Fasted”, “40.4” for “4.2”, “118.74” for “44.7”, “NaCl,” for “NaH2PO4*2 H2O,”, “82.4 mL glacial acetic acid” for “61.86 g NaCl”, “5.00+/−0.05” for “6.50+/−0.05”
Preparation of the final FeSSIF solution: 22.4 g SIF powder (provider: biorelevant.com, Product code: FFF01 (May 2022)) were dissolved in approximately 500 mL FeSSIF blank solution, then the final volume was adjusted to 2.0 L by the addition of FeSSIF blank solution. The solution was considered to be ready to use immediately after manufacturing and was used within 48 hours.

[3] = Dissolution profile, flow through cell in FeSSIF / FaSSIF (Example 16); format: physicochemical
Experimental: Prior to the measurements, the samples were micronized using a jet mill (MC DECJET 30) under nitrogen, with a pressure of 4.5 Bar for the injector and 4.0 Bar grinding pressure.
Dissolution rates of the drug substance were then determined using a flow through cell (FTC) from Sotax. All experiments were conducted in triplicates.
Then, the respective medium (FaSSIF or FeSSIF) was pumped through the cell with a pump rate of 2 mL/min for a total time of 14 minutes, resulting in a total volume of 28 mL. This volume was collected in time increments of 2 minutes, leading to 7 collected fractions with 4 mL each. The drug substance concentration of each fraction was determined by HPLC (external standard).

[4] = Determination of exposure in rat after intragastric administration (Example 13); format: in vivo; conditions: for AUC(0-t): female, plasma, po, read-out: AUC(0-tlast); for AUC(0-t) / AUC(0-tlast)norm: free acid in rat plasma
Experimental: Determination of exposure after intragastric application of test compounds was performed in female conscious rats with a body weight of 0.2 kg (minimum) to 0.25 kg (maximum). The test compounds were applied as bolus via intragastric probe to unfed female rats in solution or suspension in the vehicle ethanol/solutol/water (v/v/v 10/40/50).
At the indicated timepoints between 8 min and 24 h after dosing, 150 μl blood were sampled via a catheter from the vena jugularis. The samples were treated with K-EDTA as anticoagulant and stored cooled until further processing (refrigerator, 4° C.). The samples were centrifuged (15 min, 3000 rpm), then an aliquot of 100 μL was taken from the supernatant (plasma), precipitated by addition of 400 μL cold acetonitrile or methanol (abs.) and frozen at −20° C. over night. The samples were centrifuged (15 min, 3000 rpm), then 150 μL of the clear supernatant were taken for analytical testing. Analytics were performed using an Agilent 1200 HPLC-system with LCMS/MS detection.
The applied dose of cholinate according to the invention was adjusted as compared to free acid according to the difference in molecular weight. The resulting equivalent doses were used for comparison.

[5] = Solubility free acid vs. salt, shake-flask method (Example 12); format: physicochemical

## O=C([O-])c1cc(NC(=O)C2(c3ccc(C(F)(F)F)cc3F)CC2)ccc1-c1cnn(C2CCC2)c1.[Na+] [Sodium salt, Sodium 2-(1-cyclobutyl-1H-pyrazol-4-yl)-5-[({1-[2-fluoro-4-(trifluoromethyl)phenyl]cyclopropyl}carbonyl)amino]benzoate]
[1]; 0% Relative humidity
  Change in mass [%], Desorption: −3.95%
  Change in mass [%], Sorption: 0.00%
[1]; 10% Relative humidity
  Change in mass [%], Desorption: −0.87%
  Change in mass [%], Sorption: 0.85%
[1]; 20% Relative humidity
  Change in mass [%], Desorption: 0.84%
  Change in mass [%], Sorption: 1.36%
[1]; 30% Relative humidity
  Change in mass [%], Desorption: 1.91%
  Change in mass [%], Sorption: 1.92%
[1]; 40% Relative humidity
  Change in mass [%], Desorption: 3.33%
  Change in mass [%], Sorption: 2.95%
[1]; 50% Relative humidity
  Change in mass [%], Desorption: 5.07%
  Change in mass [%], Sorption: 7.77%
[1]; 60% Relative humidity
  Change in mass [%], Desorption: 7.95%
  Change in mass [%], Sorption: 11.23%
[1]; 70% Relative humidity
  Change in mass [%], Desorption: 11.79%
  Change in mass [%], Sorption: 15.05%
[1]; 80% Relative humidity
  Change in mass [%], Desorption: 16.87%
  Change in mass [%], Sorption: 20.22%
[1]; 90% Relative humidity
  Change in mass [%], Desorption: 26.84%
  Change in mass [%], Sorption: 30.67%
[1]; 95% Relative humidity
  Change in mass [%], Desorption: 42.62%
  Change in mass [%], Sorption: 42.62%
[1]; summarized results, 30% R.H.
  DVS Dm @ 30% R.H. (Sorption): 1.9%
[1]; summarized results, 50% R.H.
  DVS Dm @ 50% R.H. (Sorption): 5.1%
[1]; summarized results, 80% R.H.
  DVS Dm @ 80% R.H. (Sorption): 20.2%
[2]; Buffer pH 4.5, 25° C.
  solubility: 3 mgfree acid/L
[2]; Buffer pH 7, 25° C.
  solubility: 421 mgfree acid/L
[2]; Buffer pH 8, 25° C.
  solubility: 5075 mgfree acid/L
[2]; FaSSIF (37° C.) (Fasted State Simulated Intestinal Fluid)
  solubility: 426 mgfree acid/L
[2]; FeSSIF (37° C.) (Fed State Simulated Intestinal Fluid)
  solubility: 14 mgfree acid/L
[2]; Water, 25° C.
  solubility: 6176 mgfree acid/L
[3]; micronized samples
  Dissolution profile, comparison in words: no differences

## O=C(O)c1cc(NC(=O)C2(c3ccc(C(F)(F)F)cc3F)CC2)ccc1-c1cnn(C2CCC2)c1 [free acid, 2-(1-cyclobutyl-1H-pyrazol-4-yl)-5-[({1-[2-fluoro-4-(trifluoromethyl)-phenyl]cyclopropyl}carbonyl)amino]benzoic acid]
[1]; 0% Relative humidity
  Change in mass [%], Desorption: 0.65%
  Change in mass [%], Sorption: 0.06%
[1]; 10% Relative humidity
  Change in mass [%], Desorption: 0.52%
  Change in mass [%], Sorption: 0.08%
[1]; 20% Relative humidity
  Change in mass [%], Desorption: 0.42%
  Change in mass [%], Sorption: 0.10%
[1]; 30% Relative humidity
  Change in mass [%], Desorption: 0.35%
  Change in mass [%], Sorption: 0.12%
[1]; 40% Relative humidity
  Change in mass [%], Desorption: 0.29%
  Change in mass [%], Sorption: 0.14%
[1]; 50% Relative humidity
  Change in mass [%], Desorption: 0.16%
  Change in mass [%], Sorption: 0.17%
[1]; 60% Relative humidity
  Change in mass [%], Desorption: 0.09%
  Change in mass [%], Sorption: 0.20%
[1]; 70% Relative humidity
  Change in mass [%], Desorption: 0.05%
  Change in mass [%], Sorption: 0.23%
[1]; 80% Relative humidity
  Change in mass [%], Desorption: 0.03%
  Change in mass [%], Sorption: 0.29%
[1]; 90% Relative humidity
  Change in mass [%], Desorption: 0.01%
  Change in mass [%], Sorption: 0.44%
[1]; 95% Relative humidity
  Change in mass [%], Desorption: 0.00%
  Change in mass [%], Sorption: 0.65%
[4]; rat, 3 mg/kg, dose equiv. 3 mg/kg
  AUC(0-t): 24 µg·h/mL
[4]; rat, 30 mg/kg, dose equiv. 30 mg/kg
  AUC(0-t): 149 µg·h/mL
[4]; rat, 100 mg/kg, dose equiv. 100 mg/kg
  AUC(0-t): 247 µg·h/mL
[4]; rat, 150 mg/kg, dose equiv. 150 mg/kg
  AUC(0-t): 225 µg·h/mL
[4]; dose equiv. 3 mg/kg
  AUC(0-tlast)norm: 8.1 kg·h/L
[4]; dose equiv. 30 mg/kg
  AUC(0-tlast)norm: 5 kg·h/L
[4]; dose equiv. 100 mg/kg
  AUC(0-tlast)norm: 2.5 kg·h/L
[4]; dose equiv. 150 mg/kg
  AUC(0-tlast)norm: 1.5 kg·h/L
[4]; rat, doses above 30 mg/kg
  Increase of plasma exposure of free acid with dose: much less than dose-proportional increase of exposure
[5]; Acetone, 25° C.
  solubility: 10100 mg/L
[5]; Acetonitrile, 25° C.
  solubility: 1290 mg/L
[5]; Ethanol, 25° C.
  solubility: 4260 mg/L
[5]; PEG 400, 25° C.
  solubility: 6830 mg/L
[5]; Phosphate buffer pH 7, 25° C.
  solubility: 87 mg/L
[5]; Solutol/Ethanol/Water (40/10/50 V/V/V), 25° C.
  solubility: 1300 mg/L
[5]; Water, 25° C., stirred overnight
  solubility: <1* mg/L
[5]; solubility test in water, pH of water before stirring: 5.57
  pH of the clear solution: *pH of the clear solution: 4.6
[3]; FaSSIF, 14 minutes, micronized
  Dissolution in FaSSIF, comparison in words: dissolved slower
[3]; FeSSIF, 14 minutes, micronized
  Dissolution in FeSSIF, comparison in words: significantly slower

From patent publication US20250282734A1 (Bayer Aktiengesellschaft, priority 2021, published 2025)
